The values below come from ChEMBL document CHEMBL5291721, “A preclinical secondary pharmacology resource illuminates target-adverse drug reaction associations of marketed drugs” (Nat Commun, 2023).

The target in experiment [1] is T1, Estrogen receptor (Homo sapiens, UniProt P03372).
T1 sequence (P03372 whole entry): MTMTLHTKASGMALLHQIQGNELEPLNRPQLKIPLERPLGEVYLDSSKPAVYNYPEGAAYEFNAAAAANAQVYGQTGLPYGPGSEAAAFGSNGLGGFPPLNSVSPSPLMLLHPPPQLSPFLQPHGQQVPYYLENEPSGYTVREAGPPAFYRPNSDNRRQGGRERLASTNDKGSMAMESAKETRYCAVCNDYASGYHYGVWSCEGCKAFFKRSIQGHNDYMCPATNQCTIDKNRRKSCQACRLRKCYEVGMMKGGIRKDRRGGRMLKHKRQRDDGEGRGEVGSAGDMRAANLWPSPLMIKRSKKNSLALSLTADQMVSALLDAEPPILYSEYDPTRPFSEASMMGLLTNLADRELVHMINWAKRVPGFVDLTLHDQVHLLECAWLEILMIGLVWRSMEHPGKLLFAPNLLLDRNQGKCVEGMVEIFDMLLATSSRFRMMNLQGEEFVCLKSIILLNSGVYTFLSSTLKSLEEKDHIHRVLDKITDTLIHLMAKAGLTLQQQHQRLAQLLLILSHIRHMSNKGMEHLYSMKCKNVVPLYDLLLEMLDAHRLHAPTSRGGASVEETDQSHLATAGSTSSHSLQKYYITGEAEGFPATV

Experiment [2] addresses cGMP-inhibited 3',5'-cyclic phosphodiesterase 3A (Homo sapiens, UniProt Q14432). In kind it is functional.
The target of experiment [3] is T2, Mu-type opioid receptor (Homo sapiens, UniProt P35372).
T2 sequence (P35372 whole entry): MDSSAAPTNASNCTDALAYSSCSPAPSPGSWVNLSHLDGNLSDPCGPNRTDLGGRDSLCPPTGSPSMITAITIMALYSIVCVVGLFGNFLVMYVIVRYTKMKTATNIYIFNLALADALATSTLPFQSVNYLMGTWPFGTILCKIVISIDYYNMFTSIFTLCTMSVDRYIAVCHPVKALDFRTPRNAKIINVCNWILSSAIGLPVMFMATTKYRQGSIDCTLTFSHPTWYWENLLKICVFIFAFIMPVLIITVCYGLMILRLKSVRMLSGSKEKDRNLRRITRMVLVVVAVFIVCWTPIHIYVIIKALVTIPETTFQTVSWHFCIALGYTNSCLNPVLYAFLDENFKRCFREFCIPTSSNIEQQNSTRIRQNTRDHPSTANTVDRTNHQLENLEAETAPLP
For another experiment, the target named is T3, Thromboxane A2 receptor (Homo sapiens, UniProt P21731).
T3 sequence (P21731 whole entry): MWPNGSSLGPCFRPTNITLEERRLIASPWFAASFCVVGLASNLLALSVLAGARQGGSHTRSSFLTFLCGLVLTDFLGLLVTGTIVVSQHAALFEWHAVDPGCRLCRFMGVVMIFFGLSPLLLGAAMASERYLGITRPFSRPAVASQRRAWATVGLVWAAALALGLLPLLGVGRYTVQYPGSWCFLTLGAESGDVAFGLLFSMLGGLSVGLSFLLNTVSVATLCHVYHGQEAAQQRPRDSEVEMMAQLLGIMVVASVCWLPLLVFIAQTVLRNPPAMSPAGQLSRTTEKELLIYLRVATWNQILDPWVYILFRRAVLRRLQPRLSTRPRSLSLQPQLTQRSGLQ
It counts as functional, cell-based.

Experiment [4] has as its target T1, Estrogen receptor. This is another data set of the same source.
The target of experiment [5] is 5-hydroxytryptamine receptor 2B (Homo sapiens, UniProt P41595). In kind it is functional, cell-based.
Sequence of 5-hydroxytryptamine receptor 2B (P41595 whole entry): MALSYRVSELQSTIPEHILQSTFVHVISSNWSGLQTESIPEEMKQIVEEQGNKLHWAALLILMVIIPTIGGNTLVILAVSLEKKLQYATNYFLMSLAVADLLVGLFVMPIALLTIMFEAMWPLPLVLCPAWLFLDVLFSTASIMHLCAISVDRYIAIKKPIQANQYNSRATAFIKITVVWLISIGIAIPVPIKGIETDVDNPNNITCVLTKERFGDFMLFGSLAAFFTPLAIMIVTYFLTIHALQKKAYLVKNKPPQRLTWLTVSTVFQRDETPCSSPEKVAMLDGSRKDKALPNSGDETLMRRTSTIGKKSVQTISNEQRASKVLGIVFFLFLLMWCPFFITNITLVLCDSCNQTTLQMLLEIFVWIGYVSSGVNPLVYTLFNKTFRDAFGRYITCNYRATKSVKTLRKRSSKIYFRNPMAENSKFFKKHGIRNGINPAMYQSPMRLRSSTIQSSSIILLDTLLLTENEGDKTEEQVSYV
A further experiment addresses T4, Progesterone receptor (Homo sapiens, UniProt P06401).
T4 sequence (P06401 whole entry): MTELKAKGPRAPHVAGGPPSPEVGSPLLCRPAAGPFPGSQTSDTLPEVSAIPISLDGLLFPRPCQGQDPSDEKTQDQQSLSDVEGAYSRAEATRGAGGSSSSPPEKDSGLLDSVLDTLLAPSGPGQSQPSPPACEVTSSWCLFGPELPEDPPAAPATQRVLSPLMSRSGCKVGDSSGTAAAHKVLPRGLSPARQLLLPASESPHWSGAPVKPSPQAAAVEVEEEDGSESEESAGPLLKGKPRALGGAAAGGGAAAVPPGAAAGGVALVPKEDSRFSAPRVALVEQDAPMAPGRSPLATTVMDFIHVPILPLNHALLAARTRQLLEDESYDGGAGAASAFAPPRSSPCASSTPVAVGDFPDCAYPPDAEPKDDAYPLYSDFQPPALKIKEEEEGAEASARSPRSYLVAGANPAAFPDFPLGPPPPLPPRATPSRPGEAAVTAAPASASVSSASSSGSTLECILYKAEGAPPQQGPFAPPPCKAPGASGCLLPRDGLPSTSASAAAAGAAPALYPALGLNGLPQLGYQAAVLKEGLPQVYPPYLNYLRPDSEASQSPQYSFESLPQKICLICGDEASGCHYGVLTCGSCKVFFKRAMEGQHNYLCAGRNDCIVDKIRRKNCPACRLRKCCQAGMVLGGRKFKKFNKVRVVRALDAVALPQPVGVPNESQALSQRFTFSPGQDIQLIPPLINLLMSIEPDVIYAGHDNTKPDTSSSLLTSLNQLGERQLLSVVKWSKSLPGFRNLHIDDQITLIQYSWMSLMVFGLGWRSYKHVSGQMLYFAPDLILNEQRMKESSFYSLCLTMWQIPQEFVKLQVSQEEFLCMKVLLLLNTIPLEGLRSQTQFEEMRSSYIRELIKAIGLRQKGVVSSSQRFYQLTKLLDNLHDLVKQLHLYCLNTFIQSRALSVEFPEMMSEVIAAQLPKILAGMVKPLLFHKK
It counts as functional.

The target of a further experiment is Histamine H1 receptor (Homo sapiens, UniProt P35367).
Sequence of Histamine H1 receptor (P35367 whole entry): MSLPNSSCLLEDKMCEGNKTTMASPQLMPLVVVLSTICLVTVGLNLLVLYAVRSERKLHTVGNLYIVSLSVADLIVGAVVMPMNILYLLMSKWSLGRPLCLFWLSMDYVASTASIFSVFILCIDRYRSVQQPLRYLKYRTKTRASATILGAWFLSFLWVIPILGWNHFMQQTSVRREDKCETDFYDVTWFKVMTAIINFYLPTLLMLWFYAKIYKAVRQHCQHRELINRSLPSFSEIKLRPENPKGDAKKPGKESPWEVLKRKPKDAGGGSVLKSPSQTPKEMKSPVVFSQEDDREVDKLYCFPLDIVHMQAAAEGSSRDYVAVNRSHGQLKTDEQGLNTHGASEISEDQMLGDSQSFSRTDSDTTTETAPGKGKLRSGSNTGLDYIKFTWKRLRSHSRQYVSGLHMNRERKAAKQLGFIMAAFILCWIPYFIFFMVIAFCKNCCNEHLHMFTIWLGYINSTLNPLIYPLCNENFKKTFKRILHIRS
The target in another experiment is D(1A) dopamine receptor (Homo sapiens, UniProt P21728). It counts as functional, cell-based.
Sequence of D(1A) dopamine receptor (P21728 whole entry): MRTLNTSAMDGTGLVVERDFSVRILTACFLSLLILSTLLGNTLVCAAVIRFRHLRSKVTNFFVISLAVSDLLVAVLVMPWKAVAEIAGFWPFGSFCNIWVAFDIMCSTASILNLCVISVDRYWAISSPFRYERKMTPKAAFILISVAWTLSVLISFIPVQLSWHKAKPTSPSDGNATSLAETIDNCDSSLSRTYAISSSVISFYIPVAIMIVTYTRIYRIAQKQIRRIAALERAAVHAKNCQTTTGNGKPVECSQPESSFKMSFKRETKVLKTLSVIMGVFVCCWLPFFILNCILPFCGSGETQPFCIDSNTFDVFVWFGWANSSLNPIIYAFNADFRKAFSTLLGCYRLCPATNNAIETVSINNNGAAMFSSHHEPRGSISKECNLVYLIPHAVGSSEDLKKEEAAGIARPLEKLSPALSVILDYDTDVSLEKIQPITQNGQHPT
For experiment [6], the target named is Kappa-type opioid receptor (Homo sapiens, UniProt P41145).
Sequence of Kappa-type opioid receptor (P41145 whole entry): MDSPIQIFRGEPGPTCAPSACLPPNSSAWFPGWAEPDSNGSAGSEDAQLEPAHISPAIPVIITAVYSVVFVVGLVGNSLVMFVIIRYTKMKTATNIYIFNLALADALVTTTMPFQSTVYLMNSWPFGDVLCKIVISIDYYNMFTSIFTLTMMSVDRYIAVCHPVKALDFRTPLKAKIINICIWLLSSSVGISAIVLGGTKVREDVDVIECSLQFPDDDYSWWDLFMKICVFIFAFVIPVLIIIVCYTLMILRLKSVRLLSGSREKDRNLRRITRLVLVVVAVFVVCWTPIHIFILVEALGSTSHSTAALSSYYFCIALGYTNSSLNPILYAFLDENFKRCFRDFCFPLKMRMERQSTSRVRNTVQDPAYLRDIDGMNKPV
Experiment [7] has as its target Gamma-aminobutyric acid receptor subunit alpha-1 (Rattus norvegicus, UniProt P62813).
The target in the next experiment is Cannabinoid receptor 1 (Homo sapiens, UniProt P21554). In kind it is functional, cell-based.
Sequence of Cannabinoid receptor 1 (P21554 whole entry): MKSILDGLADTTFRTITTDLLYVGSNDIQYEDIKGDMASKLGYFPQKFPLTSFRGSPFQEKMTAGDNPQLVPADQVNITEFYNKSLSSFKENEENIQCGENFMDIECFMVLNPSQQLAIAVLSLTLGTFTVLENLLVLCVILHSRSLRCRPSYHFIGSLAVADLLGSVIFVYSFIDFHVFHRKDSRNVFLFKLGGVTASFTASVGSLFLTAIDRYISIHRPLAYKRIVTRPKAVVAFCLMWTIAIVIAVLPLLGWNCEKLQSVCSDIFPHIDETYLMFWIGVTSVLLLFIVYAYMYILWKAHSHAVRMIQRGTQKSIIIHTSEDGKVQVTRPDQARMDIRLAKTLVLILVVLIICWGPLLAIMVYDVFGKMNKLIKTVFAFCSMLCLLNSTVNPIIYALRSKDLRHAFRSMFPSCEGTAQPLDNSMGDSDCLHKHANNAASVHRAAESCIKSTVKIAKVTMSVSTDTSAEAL
Experiment [8] addresses T2, Mu-type opioid receptor. The source holds these as a separate data set.
Further: assay procedure not described here.

Sequence of cGMP-inhibited 3',5'-cyclic phosphodiesterase 3A (Q14432 whole entry): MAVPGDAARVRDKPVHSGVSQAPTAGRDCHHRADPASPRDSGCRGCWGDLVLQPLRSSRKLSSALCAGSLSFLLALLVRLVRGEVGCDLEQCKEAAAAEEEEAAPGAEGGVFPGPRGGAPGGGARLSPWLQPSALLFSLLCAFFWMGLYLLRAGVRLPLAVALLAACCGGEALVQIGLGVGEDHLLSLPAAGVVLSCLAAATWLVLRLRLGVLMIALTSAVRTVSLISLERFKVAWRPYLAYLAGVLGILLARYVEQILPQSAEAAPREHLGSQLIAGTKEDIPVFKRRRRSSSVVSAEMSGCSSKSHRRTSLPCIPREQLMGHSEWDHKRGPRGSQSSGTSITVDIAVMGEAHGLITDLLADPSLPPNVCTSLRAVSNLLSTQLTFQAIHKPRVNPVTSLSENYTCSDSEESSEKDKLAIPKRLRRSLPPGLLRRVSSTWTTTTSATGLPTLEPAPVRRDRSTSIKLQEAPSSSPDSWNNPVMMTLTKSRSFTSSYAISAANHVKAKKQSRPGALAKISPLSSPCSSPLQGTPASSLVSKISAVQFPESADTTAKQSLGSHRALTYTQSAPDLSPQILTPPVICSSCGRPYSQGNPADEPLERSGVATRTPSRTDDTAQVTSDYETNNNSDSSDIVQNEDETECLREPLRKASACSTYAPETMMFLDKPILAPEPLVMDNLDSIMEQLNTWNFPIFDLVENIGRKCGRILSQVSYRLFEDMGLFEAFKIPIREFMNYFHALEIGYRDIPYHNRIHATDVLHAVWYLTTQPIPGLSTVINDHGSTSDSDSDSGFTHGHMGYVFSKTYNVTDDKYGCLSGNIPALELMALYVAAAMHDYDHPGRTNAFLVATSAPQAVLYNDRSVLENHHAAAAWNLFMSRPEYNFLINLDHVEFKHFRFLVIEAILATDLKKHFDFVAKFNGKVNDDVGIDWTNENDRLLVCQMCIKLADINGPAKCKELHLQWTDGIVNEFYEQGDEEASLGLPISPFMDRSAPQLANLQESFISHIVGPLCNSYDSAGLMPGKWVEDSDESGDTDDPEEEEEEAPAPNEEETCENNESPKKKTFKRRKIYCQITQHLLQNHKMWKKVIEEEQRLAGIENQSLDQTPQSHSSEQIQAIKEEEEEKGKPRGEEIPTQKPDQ
Sequence of Gamma-aminobutyric acid receptor subunit alpha-1 (P62813 whole entry): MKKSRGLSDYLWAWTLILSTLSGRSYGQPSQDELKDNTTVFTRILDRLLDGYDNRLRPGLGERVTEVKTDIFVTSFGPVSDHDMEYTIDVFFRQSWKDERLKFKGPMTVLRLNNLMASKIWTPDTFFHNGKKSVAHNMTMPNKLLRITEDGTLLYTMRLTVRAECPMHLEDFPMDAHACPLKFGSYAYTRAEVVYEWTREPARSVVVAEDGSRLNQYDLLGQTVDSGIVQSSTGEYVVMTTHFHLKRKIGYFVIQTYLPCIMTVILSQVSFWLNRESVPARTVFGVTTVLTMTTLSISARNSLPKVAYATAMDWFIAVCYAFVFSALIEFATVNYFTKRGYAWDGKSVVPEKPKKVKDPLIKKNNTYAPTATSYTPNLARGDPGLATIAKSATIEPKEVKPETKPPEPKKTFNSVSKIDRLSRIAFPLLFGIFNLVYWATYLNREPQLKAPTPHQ

`CC(C)N(CCNC(=O)CN1CCCC1=O)C(C)C`: the AC50 (at Estrogen receptor [1]; in [2]; at Mu-type opioid receptor [3]; at Thromboxane A2 receptor) was > 30 µM throughout.

On to `Cc1cc(N)c2ccccc2[n+]1CCCCCCCCCC[n+]1c(C)cc(N)c2ccccc21`, for which the concentration at half-maximal activity (AC50) was 20.8 µM at Estrogen receptor [1], 10 µM in [2], 0.684 µM at Mu-type opioid receptor [3] and > 30 µM on Thromboxane A2 receptor.

`CCOC(=O)[C@H](CCc1ccccc1)N[C@@H](C)C(=O)N(CC(=O)O)C1Cc2ccccc2C1`: the half-maximal activity concentration (AC50) (on Estrogen receptor [1]; in [2]; on Mu-type opioid receptor [3]; on Thromboxane A2 receptor) was > 30 µM in each case.

In the case of `C=CCSCC1Nc2cc(Cl)c(S(N)(=O)=O)cc2S(=O)(=O)N1` (stereo not given) [ALTHIAZIDE], the AC50 (in experiment [2]; on Mu-type opioid receptor [3]; on Thromboxane A2 receptor) was > 30 µM in each case.

With `CCN(CCCc1ccccc1)CCCc1ccccc1` [ALVERINE], the concentration at half-maximal activity (AC50) is > 30 µM at Estrogen receptor [1], > 30 µM in experiment [2], 2 µM at Mu-type opioid receptor [3] and > 30 µM at Thromboxane A2 receptor.

Take `CC(C)COCC(CN(Cc1ccccc1)c1ccccc1)N1CCCC1` (stereo not given) [BEPRIDIL]: the AC50 at Estrogen receptor [4] is > 30 µM; in [5], 28 µM; at Progesterone receptor, > 30 µM; at Histamine H1 receptor, 8.6 µM; on D(1A) dopamine receptor it was > 30 µM.

Take `COc1cc(N2CCC(N3CCN(C)CC3)CC2)ccc1Nc1ncc(Cl)c(Nc2ccccc2P(C)(C)=O)n1` [BRIGATINIB]: the half-maximal activity concentration (AC50) (at Estrogen receptor [1]; in experiment [2]; on Mu-type opioid receptor [3]; on Thromboxane A2 receptor) was > 30 µM in each case.

For `COCC1=C(C(=O)O)N2C(=O)[C@@H](NC(=O)/C(=N\OC)c3csc(N)n3)[C@H]2SC1` [CEFPODOXIME], the half-maximal activity concentration (AC50) (on Estrogen receptor [4]; in experiment [6]; in experiment [7]; at Cannabinoid receptor 1; in experiment [5]; at Progesterone receptor) was > 30 µM in each case. The half-maximal activity concentration (AC50) on Histamine H1 receptor and at D(1A) dopamine receptor was > 30 µM each time.

For the compound `COc1cc(N)c(Cl)cc1C(=O)NC1CCN(Cc2ccccc2)CC1` [CLEBOPRIDE], the AC50 at Estrogen receptor [4] is > 30 µM; in experiment [6], 22 µM; in experiment [7] it was > 30 µM; on Cannabinoid receptor 1 it was > 30 µM; in experiment [5], 0.98 µM; at Progesterone receptor, > 30 µM. Further, the AC50 on Histamine H1 receptor was > 30 µM.

On to `Cc1ccccc1N1CCN(CCc2nnc3n2CCCC3)CC1` [DAPIPRAZOLE], for which the concentration at half-maximal activity (AC50) (in experiment [2]; on Mu-type opioid receptor [3]; on Thromboxane A2 receptor) was > 30 µM in each case.

Consider `C=C1CC[C@H](O)C/C1=C/C=C1\CCC[C@]2(C)[C@@H]([C@H](C)/C=C/[C@H](C)C(C)C)CC[C@@H]12` [ERGOCALCIFEROL], for which the half-maximal activity concentration (AC50) (in experiment [2]; on Mu-type opioid receptor [3]; at Thromboxane A2 receptor) was > 30 µM each time.

For `C[C@]12CCC(=O)C(O)=C1CC[C@@H]1[C@@H]2CC[C@]2(C)C(=O)CC[C@@H]12` [FORMESTANE], the AC50 at Estrogen receptor [4] was > 30 µM; in experiment [7], > 30 µM; at Cannabinoid receptor 1, > 30 µM; in [5], > 30 µM; at Progesterone receptor, 3.7 µM; at Histamine H1 receptor, > 30 µM. Moreover, the concentration at half-maximal activity (AC50) at D(1A) dopamine receptor is > 30 µM.

On to `CCC(=O)O[C@]1(C(=O)CCl)[C@@H](C)C[C@H]2[C@@H]3C[C@H](F)C4=CC(=O)C=C[C@]4(C)[C@@]3(F)[C@@H](O)C[C@@]21C` [HALOBETASOL PROPIONATE], for which the half-maximal activity concentration (AC50) (in experiment [2]; at Mu-type opioid receptor [3]; at Thromboxane A2 receptor) was > 30 µM throughout.

As to `CC(C)NCC(O)c1ccc(O)c(O)c1` (stereo not given) [ISOPROTERENOL], the AC50 in experiment [6] is > 10 µM; in experiment [7], > 10 µM; on Cannabinoid receptor 1 it was > 30 µM; in experiment [5], > 10 µM; on Mu-type opioid receptor [8] it was > 30 µM; at Progesterone receptor, > 30 µM. Further, the AC50 at D(1A) dopamine receptor was > 30 µM.

`Cc1cc(NC(=O)C2=C(O)c3ccccc3S(=O)(=O)N2C)no1` [ISOXICAM]: the concentration at half-maximal activity (AC50) (in experiment [2]; at Mu-type opioid receptor [3]; at Thromboxane A2 receptor) was > 30 µM each time.

As to `Cc1c(N(C)CS(=O)(=O)O)c(=O)n(-c2ccccc2)n1C` [METAMIZOLE], the concentration at half-maximal activity (AC50) (in [2]; at Mu-type opioid receptor [3]; on Thromboxane A2 receptor) was > 30 µM each time.

Take `C#C[C@]1(OC(C)=O)CC[C@H]2[C@@H]3CCC4=C/C(=N/O)CC[C@@H]4[C@H]3CC[C@@]21CC` [NORGESTIMATE]: the half-maximal activity concentration (AC50) on Estrogen receptor [4] was > 30 µM; in experiment [6], > 30 µM; in experiment [7], > 30 µM; on Cannabinoid receptor 1, > 30 µM; in experiment [5], > 30 µM; on Progesterone receptor, 0.02 µM. Moreover, the AC50 on Histamine H1 receptor and on D(1A) dopamine receptor was > 30 µM throughout.

For `Clc1ccc2c(N3CCN(CCCN4CCN(c5ccnc6cc(Cl)ccc56)CC4)CC3)ccnc2c1` [PIPERAQUINE], the concentration at half-maximal activity (AC50) is > 30 µM on Estrogen receptor [4]; 17 µM in experiment [6]; > 30 µM in experiment [7]; > 30 µM at Cannabinoid receptor 1; > 30 µM in experiment [5]; > 30 µM on Progesterone receptor. The half-maximal activity concentration (AC50) at Histamine H1 receptor and on D(1A) dopamine receptor was > 30 µM in each case.

For the compound `CC[C@@H]([C@H](C)O)n1ncn(-c2ccc(N3CCN(c4ccc(OC[C@@H]5CO[C@@](Cn6cncn6)(c6ccc(F)cc6F)C5)cc4)CC3)cc2)c1=O` [POSACONAZOLE], the AC50 in [2] is > 30 µM; at Mu-type opioid receptor [3], > 30 µM; on Thromboxane A2 receptor, > 1 µM; on Progesterone receptor, > 30 µM; at Histamine H1 receptor it was > 30 µM.

On to `COc1ccc(CN(CCN(C)C)c2ccccn2)cc1` [PYRILAMINE], for which the AC50 in experiment [2] was > 30 µM; at Mu-type opioid receptor [3] it was 9.05 µM; on Thromboxane A2 receptor, > 30 µM.

For the compound `CC1(C)S[C@@H]2[C@H](NC(=O)[C@H](N)c3ccccc3)C(=O)N2[C@H]1C(=O)OCOC(=O)[C@@H]1N2C(=O)C[C@H]2S(=O)(=O)C1(C)C` [SULTAMICILLIN], the half-maximal activity concentration (AC50) (at Estrogen receptor [4]; in experiment [6]; at Cannabinoid receptor 1; in experiment [5]; at Progesterone receptor; on Histamine H1 receptor) was > 30 µM each time. Also, the half-maximal activity concentration (AC50) on D(1A) dopamine receptor is > 30 µM.

In the case of `Cc1cccc(N2CC(CO)OC2=O)c1` (stereo not given) [TOLOXATONE], the AC50 (in experiment [6]; in [7]; on Cannabinoid receptor 1; in experiment [5]; at Progesterone receptor; at Histamine H1 receptor) was > 30 µM in each case. Moreover, at D(1A) dopamine receptor, the AC50 is > 30 µM.

A word on the AC50: it is the concentration giving half of the maximal activity seen. Read a low AC50 as activity at low concentration.
